In US20240216357A1 (SICHUAN HUIYU PHARMACEUTICAL CO., LTD., priority 2021, published 2024):
Where a name gives a salt, the structure may show the parent alone. Read-outs that look alike come from different tables or passages of the source.

Key:
[1] = molecular target: voltage-gated potassium ion channel hERG (Homo sapiens (Human), UniProt Q12809); assay: hERG inhibition test (manual patch-clamp); conditions: read-out: hERG IC50; manual patch-clamp
Caco-2 permeability test = conditions: human, Caco-2
NCI-H1417 cells = assay: In vitro cell proliferation detection (CellTiter-Glo, 7 days); format: cell-based; conditions: Homo sapiens
LSD1 = LSD1 (Homo sapiens (Human), UniProt O60341); assay: LSD1 enzyme activity detection (HTRF); format: biochemical; conditions: HTRF, H3K4me1 substrate; read-out: Inhibition of enzymatic activity of LSD1 IC50
CYP3A4 = CYP3A4 (Homo sapiens (Human), UniProt P08684); assay: CYP 450 enzyme inhibition test (mixed human liver microsomes, LC-MS/MS); conditions: read-out: CYP3A4-T IC50; mixed human liver microsomes, NADPH, CYP3A4-T probe substrate
Rat PK test (IV and PO) = conditions: for Cl / F: Male SD rats; for F: PO vs IV; for AUC(0-inf) / Cmax / half-life / Vd: male, SD, rat, plasma; for Vd: intravenous
[2] = 168 h, NCI-H1417 cells, 7 days, CellTiter-Glo, read-out: NCI-H1417 proliferation inhibition IC50
Throughout, for Cmax: test concentration or dose not given here.

voltage-gated potassium ion channel hERG, sequence (Q12809 whole entry): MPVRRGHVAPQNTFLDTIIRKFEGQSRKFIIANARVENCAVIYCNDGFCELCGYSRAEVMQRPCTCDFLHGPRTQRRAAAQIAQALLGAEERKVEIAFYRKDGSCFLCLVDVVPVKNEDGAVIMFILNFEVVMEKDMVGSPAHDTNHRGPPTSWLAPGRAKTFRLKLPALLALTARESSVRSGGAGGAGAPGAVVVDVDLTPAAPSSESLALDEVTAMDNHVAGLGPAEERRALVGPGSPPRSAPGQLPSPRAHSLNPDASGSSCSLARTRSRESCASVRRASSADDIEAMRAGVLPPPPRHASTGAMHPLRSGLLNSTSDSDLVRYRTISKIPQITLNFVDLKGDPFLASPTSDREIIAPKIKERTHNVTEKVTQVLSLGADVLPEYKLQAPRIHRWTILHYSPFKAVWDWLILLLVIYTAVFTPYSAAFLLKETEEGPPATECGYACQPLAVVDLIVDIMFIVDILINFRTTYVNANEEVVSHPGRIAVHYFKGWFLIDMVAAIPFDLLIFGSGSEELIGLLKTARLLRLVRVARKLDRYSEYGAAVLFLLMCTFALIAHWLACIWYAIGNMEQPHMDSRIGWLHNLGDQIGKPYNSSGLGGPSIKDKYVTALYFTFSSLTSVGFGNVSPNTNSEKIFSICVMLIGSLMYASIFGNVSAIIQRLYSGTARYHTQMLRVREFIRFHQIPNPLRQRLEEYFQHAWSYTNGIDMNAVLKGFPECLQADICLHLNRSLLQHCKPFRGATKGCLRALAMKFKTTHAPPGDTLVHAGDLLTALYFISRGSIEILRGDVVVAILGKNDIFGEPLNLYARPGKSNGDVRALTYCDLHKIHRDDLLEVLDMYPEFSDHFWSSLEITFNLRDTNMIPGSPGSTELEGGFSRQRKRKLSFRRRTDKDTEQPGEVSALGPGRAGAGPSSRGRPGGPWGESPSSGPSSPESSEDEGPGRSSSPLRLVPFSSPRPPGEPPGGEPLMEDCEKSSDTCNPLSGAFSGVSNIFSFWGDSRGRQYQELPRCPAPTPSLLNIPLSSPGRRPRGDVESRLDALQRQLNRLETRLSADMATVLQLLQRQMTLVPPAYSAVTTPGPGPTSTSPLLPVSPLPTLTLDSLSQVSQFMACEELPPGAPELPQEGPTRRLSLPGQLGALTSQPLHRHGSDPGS
CYP3A4, sequence (P08684 whole entry): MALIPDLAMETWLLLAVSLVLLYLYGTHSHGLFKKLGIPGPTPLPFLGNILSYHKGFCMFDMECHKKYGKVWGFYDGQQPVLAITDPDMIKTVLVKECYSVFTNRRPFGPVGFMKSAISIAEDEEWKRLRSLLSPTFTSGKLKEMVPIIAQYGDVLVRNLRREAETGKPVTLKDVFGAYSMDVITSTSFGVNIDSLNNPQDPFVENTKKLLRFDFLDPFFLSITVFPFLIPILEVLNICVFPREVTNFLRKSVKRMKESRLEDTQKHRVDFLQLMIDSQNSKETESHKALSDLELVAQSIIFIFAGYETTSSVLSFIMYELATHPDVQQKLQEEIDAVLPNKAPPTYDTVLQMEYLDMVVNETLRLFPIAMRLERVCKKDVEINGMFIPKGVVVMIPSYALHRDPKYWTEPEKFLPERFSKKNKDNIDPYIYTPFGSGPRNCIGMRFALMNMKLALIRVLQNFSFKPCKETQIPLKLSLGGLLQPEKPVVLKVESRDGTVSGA

Compound	IC50 (NCI-H1417 cells; [2])	IC50 (LSD1)	IC50 (CYP3A4)	IC50 [1]	further results
CS(=O)(=O)N1CCN(C(=O)c2cc(CN[C@@H]3C[C@H]3c3ccc(F)cc3)nc(-c3ccc(-n4cccn4)cc3)n2)CC1 [Example 2, (2-(4-(1H-pyrazol-1-yl)phenyl)-6-((((1R,2S)-2-(4-fluorophenyl)cyclopropyl)amino)methyl)pyrimidin-4-yl)(4-(methylsulfonyl)piperazin-1-yl)methanone]	0.73 nM	17.9 ± 3.2 nM		2580 nM	Papp A→B at 120 min (Caco-2 permeability test): 15 ×10⁻⁶ cm/s; Papp B→A at 120 min (Caco-2 permeability test): 15 ×10⁻⁶ cm/s; efflux ratio at 120 min (Caco-2 permeability test): 1
N#Cc1ccc(-c2c(-c3ccc(C(F)(F)F)c(O)c3)cnc(N3CCC(N)CC3)c2C#N)cc1F [Example 70, 2-(4-aminopiperidin-1-yl)-4-(4-cyano-3-fluorophenyl)-5-(3-hydroxy-4-(trifluoromethyl)phenyl) nicotinonitrile hydrochloride]	0.885 nM	0.5 ± 0.3 nM	8710 nM		
Cc1noc2cc(-c3cnc(N4CCC(N)CC4)c(C#N)c3-c3ccc(C#N)c(F)c3)c(F)cc12 [Example 71, 2-(4-aminopiperidin-1-yl)-4-(4-cyano-3-fluorophenyl)-5-(5-fluoro-3-methylbenzo[d]isoxazol-6-yl)nicotinonitrile]	0.338 nM	0.3 ± 0.2 nM	4300 nM		
COc1ccc(-c2cnc(N3CC4CC3CC4N)c(C#N)c2-c2ccc(C#N)c(F)c2)cc1O (centres unmarked) [Example 73, 2-(5-amino-2-azabicyclo [2.2.1]heptane-2-yl)-4-(4-cyano-3-fluorophenyl)-5-(3-hydroxy-4-methoxyphenyl) nicotinitrile]	1.61 nM	1.9 ± 0.4 nM	7590 nM		
COc1ccc(-c2c(-c3ccc(C#N)c(F)c3)nc(N3CC4CC3CC4N)n3ccnc23)cc1O (centres unmarked) [Example 164, 4-(5-(5-amino-2-azabicyclo[2.2. 1]heptan-2-yl)-8-(3-hydroxy-4-methoxyphenyl)imidazolo[1,2-c]pyrimidin-7-yl)-2-fluorobenzonitrile hydrochloride]	0.22 nM	0.4 ± 0.2 nM	> 10000 nM		
COc1ccc(-c2c(-c3ccc(C#N)c(F)c3)nc(N3CC4CC3CC4N)n3ccnc23)cc1F (centres unmarked) [Example 169, 4-(5-(5-amino-2-azabicyclo[2.2.1]heptane-2-yl)-8-(3-fluoro-4-methoxyphenyl)imidazolo[1,2-c]pyrimidin-7-yl)-2-fluorobenzonitrile hydrochloride]	4 nM	4.3 ± 0.9 nM	> 10000 nM		
O=C(c1cc(CN[C@@H]2C[C@H]2c2ccc(F)cc2)nc(-c2ccc(-n3cccn3)cc2)n1)N1CCC(F)(F)CC1 [Example 230]	3.92 nM	47.9 nM		4990 nM	
CC1CN(C(=O)c2cc(CN[C@@H]3C[C@H]3c3ccc(F)cc3)nc(-c3ccc(C#N)cc3)n2)CC(C)N1 (stereo partly drawn) [Example 239, 4-(4-(3,5-dimethyl-piperazine-1-carbonyl)-6-((((1R,2S)-2-(4-fluoro-phenyl)cyclopropyl)amino)methyl)pyrimidin-2-yl) benzonitrile]	0.986 nM	4.8 ± 1.8 nM	> 10000 nM		
COc1ccc(-c2c(C#N)cc(N3CCC(N)CC3)nc2-c2ccc(C#N)c(F)c2)cc1O [Example 273, 6-(4-aminopiperidin-1-yl)-2-(4-cyano-3-fluorophenyl)-3-(3-hydroxy-4-methoxyphenyl)pyridine-4-carbonitrile]	1.19 nM	0.2 ± 0.05 nM	> 10000 nM		
COc1ccc(-c2c(-c3ccc(C#N)c(F)c3)nc(N3CCC(N)CC3)c3c2OCC(=O)N3)cc1O [Example 280, 4-(5-(4-aminopiperidin-1-yl)-8-(3-hydroxy-4-methoxyphenyl)-3-oxo-3,4-dihydro-2H-pyridine[4,3-b][1,4]oxazin-7-yl)-2-fluorobenzonitrile hydrochloride]			> 10000 nM		IC50 (NCI-H1417 cells; NCI-H1417, 168 h, read-out: NCI-H1417 proliferation inhibition IC50(nM)): 2.7 ± 1 nM

Continued, in another order:

IC50 (NCI-H1417 cells; [2])	IC50 (LSD1)	IC50 (CYP3A4)	Compound	IC50 [1]	further results
13 nM	2.9 ± 0.28 nM		COc1ccc(-c2c(O)cc(N3CCC(N)CC3)nc2-c2ccc(C#N)c(F)c2)cc1F [Example 11, 4-(6-(4-aminopiperidin-1-yl)-3-(3-fluoro-4-methoxyphenyl)-4-hydroxypyridin-2-yl)-2-fluoroben zonitrile formate]	> 30000 nM	Papp A→B at 120 min (Caco-2 permeability test): 3.66 ×10⁻⁶ cm/s; Papp B→A at 120 min (Caco-2 permeability test): 27.2 ×10⁻⁶ cm/s; efflux ratio at 120 min (Caco-2 permeability test): 7.42
1 nM	0.46 ± 0.11 nM		COc1ccc(-c2c(OC)cc(N3CCC(N)CC3)nc2-c2ccc(C#N)c(F)c2)cc1O [Example 89, 4-(6-(4-aminopiperidin-1-yl)-3-(3-hydroxy-4-methoxyphenyl)-4-methoxypyridin-2-yl)-2-fluorobenzonitrile]	13800 nM	Cl (Rat PK test (IV and PO)): 58.3 mL/min/kg; F (Rat PK test (IV and PO)): 13.1%; AUC(0-inf) (Rat PK test (IV and PO)): 208 ng·h/mL; Cmax (Rat PK test (IV and PO)): 22.5 ng/mL; half-life (Rat PK test (IV and PO)): 6.26 h; Vd (Rat PK test (IV and PO)): 13 L/kg
0.163 nM	0.08 ± 0.03 nM		COc1ccc(-c2c(-c3ccc(C#N)c(F)c3)nc(N3CCC(N)CC3)n3ccnc23)cc1O [Example 124, 4-(5-(4-aminopiperidin-1-yl)-8-3-hydroxy-4-(methoxyphenyl)imidazolo[1,2-c]pyrimidin-7-yl)-2-fluorobenzonitrile]	> 30000 nM	Papp A→B at 120 min (Caco-2 permeability test): 1.73 ×10⁻⁶ cm/s; Papp B→A at 120 min (Caco-2 permeability test): 24.7 ×10⁻⁶ cm/s; efflux ratio at 120 min (Caco-2 permeability test): 14.3
0.176 nM	0.06 ± 0.02 nM		Cc1ccc(-c2c(-c3ccc(C#N)c(F)c3)nc(N3CCC(N)CC3)n3ccnc23)cc1O [Example 136, 4-(5-(4-aminopiperidin-1-yl)-8-(3-hydroxy-4-methylphenyl)imidazolo[1,2-c]pyrimidin-7-yl)-2-fluorobenzonitrile hydrochloride]	> 30000 nM	
0.553 nM	0.07 ± 0.05 nM		N#Cc1ccc(-c2nc(N3CCC(N)CC3)n3ccnc3c2-c2ccc(F)c(O)c2)cc1F [Example 137, 4-(5-(4-aminopiperidin-1-yl)-8-(4-fluoro-3-hydroxyphenyl)imidazolo[1,2-c]pyrimidin-7-yl]-2-fluorobenzonitrile]	> 10000 nM	
4.68 nM	22.9 nM		CS(=O)(=O)N1CCN(C(=O)c2cc(CN[C@@H]3C[C@H]3c3ccc(F)cc3)nc(-c3ccc(-n4ccnn4)cc3)n2)CC1 [Example 228]	7210 nM	
9.36 nM	7.2 ± 2.3 nM		O=C(NC1CCOCC1)c1cc(CN[C@@H]2C[C@H]2c2ccc(F)cc2)nc(-c2ccc(-n3cccn3)cc2)n1 [Example 233]	4470 nM	
2.82 nM	21.7 nM		Cc1ccc(-c2nc(CN[C@@H]3C[C@H]3c3ccc(F)cc3)cc(C(=O)NC3CCOCC3)n2)cc1O [Example 236]	5400 nM	Papp A→B at 120 min (Caco-2 permeability test): 1.44 ×10⁻⁶ cm/s; Papp B→A at 120 min (Caco-2 permeability test): 3.99 ×10⁻⁶ cm/s; efflux ratio at 120 min (Caco-2 permeability test): 2.76
1.78 nM	18.1 nM		O=C(NC1CCOCC1)c1cc(CN[C@@H]2C[C@H]2c2ccc(F)cc2)nc(-c2ccc(N3CCOCC3)cc2)n1 [Example 246, 6-(((1R,2S)-2-(4-fluorophenyl)cyclopropyl)amino)methyl)-2-(4-morpho-linophenyl)-N-(tetrahydro-2H-pyran-4-yl)pyrimidine-4-carboxamide hydrochloride]	8550 nM	Cl (Rat PK test (IV and PO)): 39.6 mL/min/kg; F (Rat PK test (IV and PO)): 9.54%; AUC(0-inf) (Rat PK test (IV and PO)): 265 ng·h/mL; Cmax (Rat PK test (IV and PO)): 56.2 ng/mL; half-life (Rat PK test (IV and PO)): 4.96 h; Vd (Rat PK test (IV and PO)): 4.22 L/kg; Papp A→B at 120 min (Caco-2 permeability test): 3.59 ×10⁻⁶ cm/s; Papp B→A at 120 min (Caco-2 permeability test): 3.36 ×10⁻⁶ cm/s; efflux ratio at 120 min (Caco-2 permeability test): 0.96
